From ChEMBL document CHEMBL1201862, “PubChem BioAssay data set” (2004)
Values joined by “and” are separate entries in the source; they are usually repeats but may differ in a detail not shown here. Equal entries are not always repeated. Active and inactive are the calls of the source.

Assays:
[1] = molecular target: Death-associated protein kinase 3 (Homo sapiens, UniProt O43293); type: functional;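 note: measured as one member of a kinome-wide profiling panel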
[2] = molecular target: Receptor tyrosine-protein kinase erbB-4 (Homo sapiens, UniProt Q15303); type: functional;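 note: ERBB4 member of a kinome-wide kinase profiling panel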
[3] = molecular target: Dual specificity protein kinase CLK4 (Homo sapiens, UniProt Q9HAZ1); type: functional
[4] = molecular target: Casein kinase I isoform alpha (Homo sapiens, UniProt P48729); type: functional
[5] = molecular target: Tyrosine-protein kinase Fer (Homo sapiens, UniProt P16591); type: functional;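 note: FER tested as one member of a kinome panel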
[6] = molecular target: Mitogen-activated protein kinase 1 (Homo sapiens, UniProt P28482); type: functional
[7] = molecular target: Cyclin-dependent kinase 5 (Homo sapiens, UniProt Q00535); type: functional;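 note: CDK5 measured as one member of a kinase profiling panel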
[8] = molecular target: Cell division cycle 7-related protein kinase (Homo sapiens, UniProt O00311); type: functional;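 note: value obtained from a kinome-wide kinase panel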
[9] = molecular target: cGMP-dependent protein kinase 1 (Homo sapiens, UniProt Q13976); type: functional;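 note: value from a kinome panel screen with PRKG1 as the panel member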
[10] = molecular target: Dual specificity tyrosine-phosphorylation-regulated kinase 1A (Homo sapiens, UniProt Q13627); type: functional;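 note: measured against DYRK1A as one member of a broad kinome profiling panel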
[11] = molecular target: Serine/threonine-protein kinase MRCK alpha (Homo sapiens, UniProt Q5VT25); type: functional
[12] = molecular target: Rho-associated protein kinase 1 (Homo sapiens, UniProt Q13464); type: functional;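 note: measured within a broad kinome-wide panel profiling many kinases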
[13] = molecular target: Casein kinase II subunit alpha (Homo sapiens, UniProt P68400); type: functional
[14] = molecular target: Mitogen-activated protein kinase 8 (Homo sapiens, UniProt P45983); type: functional;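 note: value comes from one member of a kinome-wide kinase profiling panel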
[15] = molecular target: Testis-specific serine/threonine-protein kinase 2 (Homo sapiens, UniProt Q96PF2); type: functional;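 note: part of the Navigating the Kinome panel, target entry STK22B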
[16] = molecular target: Vascular endothelial growth factor receptor 3 (Homo sapiens, UniProt P35916); type: functional;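 note: value from a kinome-wide profiling panel, with FLT4 as the panel member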
[17] = molecular target: T1, Mannose-6-phosphate isomerase (Homo sapiens, UniProt P34949); assay: PMI enzyme inhibitors, confirmation, biochemical, fluorescence intensity (AID 1535)
T1 sequence (P34949 whole entry): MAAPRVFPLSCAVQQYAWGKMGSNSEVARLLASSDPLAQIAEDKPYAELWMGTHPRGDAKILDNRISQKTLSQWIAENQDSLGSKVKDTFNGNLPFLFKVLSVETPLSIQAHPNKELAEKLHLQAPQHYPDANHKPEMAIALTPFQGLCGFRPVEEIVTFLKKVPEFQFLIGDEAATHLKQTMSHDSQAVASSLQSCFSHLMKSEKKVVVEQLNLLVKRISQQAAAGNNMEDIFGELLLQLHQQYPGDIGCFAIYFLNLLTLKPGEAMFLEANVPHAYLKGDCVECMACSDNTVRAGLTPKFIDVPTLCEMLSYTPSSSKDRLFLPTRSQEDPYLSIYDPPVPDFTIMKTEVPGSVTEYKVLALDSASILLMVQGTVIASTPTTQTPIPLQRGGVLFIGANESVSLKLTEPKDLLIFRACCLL

[18] = cytotoxicity in HEK-293T cells, dose response, cytotoxicity control for TCR NF-kB inhibitor project, luminescence, T-cell screen hits (AID 489026); type: functional, cell-based;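 note: cells exposed to compound about 14 hours before the viability readout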
[19] = molecular target: T2, Bcl-2-like protein 10 (Homo sapiens, UniProt Q9HD36); assay: displacers of TR3 peptide from Bcl-B, primary screen, selectivity assay for Bfl-1 inhibitor project, biochemical, fluorescence polarization, FITC-TR3 peptide (AID 748);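 note: fluorescence polarization from a fluorescein-labelled TR3 peptide binding purified Bcl-B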
T2 sequence (Q9HD36 whole entry): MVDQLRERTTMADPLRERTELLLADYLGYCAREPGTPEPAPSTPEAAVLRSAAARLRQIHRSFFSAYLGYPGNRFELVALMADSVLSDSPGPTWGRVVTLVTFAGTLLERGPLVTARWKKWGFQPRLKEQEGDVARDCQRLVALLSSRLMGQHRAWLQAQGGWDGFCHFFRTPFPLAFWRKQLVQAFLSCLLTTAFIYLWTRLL

[20] = molecular target: T3, Aminopeptidase N (Plasmodium falciparum FcB1/Columbia, UniProt O96935); assay: P. falciparum M1AAP inhibitors, biochemical, fluorogenic H-Leu-NHMec substrate, 1536-well (AID 1445); design: species or system Plasmodium falciparum 3D7, 3D7
T3 sequence (O96935 whole entry): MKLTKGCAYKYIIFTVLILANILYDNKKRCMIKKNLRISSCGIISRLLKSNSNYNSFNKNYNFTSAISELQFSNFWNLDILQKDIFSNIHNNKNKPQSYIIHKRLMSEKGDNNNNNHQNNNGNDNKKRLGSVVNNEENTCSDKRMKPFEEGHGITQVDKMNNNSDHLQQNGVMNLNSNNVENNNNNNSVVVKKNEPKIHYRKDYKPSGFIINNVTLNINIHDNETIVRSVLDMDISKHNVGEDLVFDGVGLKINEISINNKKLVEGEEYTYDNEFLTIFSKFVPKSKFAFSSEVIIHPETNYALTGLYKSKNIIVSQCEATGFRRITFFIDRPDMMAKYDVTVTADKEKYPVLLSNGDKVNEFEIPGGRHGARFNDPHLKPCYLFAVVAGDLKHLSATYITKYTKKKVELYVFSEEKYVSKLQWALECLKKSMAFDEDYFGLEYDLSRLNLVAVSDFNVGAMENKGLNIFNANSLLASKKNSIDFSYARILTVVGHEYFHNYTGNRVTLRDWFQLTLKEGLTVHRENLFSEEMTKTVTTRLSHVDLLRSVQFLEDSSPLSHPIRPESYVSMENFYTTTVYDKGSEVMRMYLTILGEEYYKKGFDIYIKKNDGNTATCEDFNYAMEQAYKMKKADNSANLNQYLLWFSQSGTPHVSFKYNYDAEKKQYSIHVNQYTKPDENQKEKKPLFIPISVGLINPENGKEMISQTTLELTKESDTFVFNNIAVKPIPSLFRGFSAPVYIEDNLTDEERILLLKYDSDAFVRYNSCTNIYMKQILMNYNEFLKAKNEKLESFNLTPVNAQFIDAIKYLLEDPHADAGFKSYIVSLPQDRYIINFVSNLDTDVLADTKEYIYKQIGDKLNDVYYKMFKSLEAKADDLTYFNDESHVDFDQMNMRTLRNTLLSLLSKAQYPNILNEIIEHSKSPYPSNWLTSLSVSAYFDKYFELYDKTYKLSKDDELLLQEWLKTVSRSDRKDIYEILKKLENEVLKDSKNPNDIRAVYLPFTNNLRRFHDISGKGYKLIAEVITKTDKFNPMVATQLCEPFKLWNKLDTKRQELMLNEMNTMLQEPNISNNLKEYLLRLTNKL

[21] = system: Jurkat; assay: SAR Analysis of small molecule inhibitors of T-cell specific antigen receptor-induced NF-kB activation in a Jurkat cell line using a luminescence assay. [Related pubchem assays (depositor defined):AID435003, AID435012, AID465]; type: functional, cell-based; details: Homo sapiens

Chain of Casein kinase II subunit alpha (P68400 whole entry): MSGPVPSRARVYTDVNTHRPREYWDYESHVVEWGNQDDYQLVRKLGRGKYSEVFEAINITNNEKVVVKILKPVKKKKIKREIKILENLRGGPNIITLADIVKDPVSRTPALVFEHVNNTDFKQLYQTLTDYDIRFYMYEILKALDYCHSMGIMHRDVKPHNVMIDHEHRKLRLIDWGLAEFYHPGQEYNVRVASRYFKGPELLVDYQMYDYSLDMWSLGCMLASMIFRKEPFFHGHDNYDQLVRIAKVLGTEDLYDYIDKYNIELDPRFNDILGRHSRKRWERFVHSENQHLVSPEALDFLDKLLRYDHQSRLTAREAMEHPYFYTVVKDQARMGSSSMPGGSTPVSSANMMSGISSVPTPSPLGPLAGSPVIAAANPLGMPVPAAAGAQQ
Chain of Mitogen-activated protein kinase 1 (P28482 whole entry): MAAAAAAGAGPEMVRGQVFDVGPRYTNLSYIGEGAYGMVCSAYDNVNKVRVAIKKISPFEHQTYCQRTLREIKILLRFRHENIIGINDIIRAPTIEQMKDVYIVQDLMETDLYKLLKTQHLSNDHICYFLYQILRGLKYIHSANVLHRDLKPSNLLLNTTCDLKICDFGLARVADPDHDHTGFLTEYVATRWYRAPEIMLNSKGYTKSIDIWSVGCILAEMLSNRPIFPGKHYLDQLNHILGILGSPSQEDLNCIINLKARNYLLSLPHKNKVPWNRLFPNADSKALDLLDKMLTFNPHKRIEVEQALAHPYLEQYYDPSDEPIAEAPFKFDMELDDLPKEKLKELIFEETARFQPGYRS
Chain of Serine/threonine-protein kinase MRCK alpha (Q5VT25 whole entry): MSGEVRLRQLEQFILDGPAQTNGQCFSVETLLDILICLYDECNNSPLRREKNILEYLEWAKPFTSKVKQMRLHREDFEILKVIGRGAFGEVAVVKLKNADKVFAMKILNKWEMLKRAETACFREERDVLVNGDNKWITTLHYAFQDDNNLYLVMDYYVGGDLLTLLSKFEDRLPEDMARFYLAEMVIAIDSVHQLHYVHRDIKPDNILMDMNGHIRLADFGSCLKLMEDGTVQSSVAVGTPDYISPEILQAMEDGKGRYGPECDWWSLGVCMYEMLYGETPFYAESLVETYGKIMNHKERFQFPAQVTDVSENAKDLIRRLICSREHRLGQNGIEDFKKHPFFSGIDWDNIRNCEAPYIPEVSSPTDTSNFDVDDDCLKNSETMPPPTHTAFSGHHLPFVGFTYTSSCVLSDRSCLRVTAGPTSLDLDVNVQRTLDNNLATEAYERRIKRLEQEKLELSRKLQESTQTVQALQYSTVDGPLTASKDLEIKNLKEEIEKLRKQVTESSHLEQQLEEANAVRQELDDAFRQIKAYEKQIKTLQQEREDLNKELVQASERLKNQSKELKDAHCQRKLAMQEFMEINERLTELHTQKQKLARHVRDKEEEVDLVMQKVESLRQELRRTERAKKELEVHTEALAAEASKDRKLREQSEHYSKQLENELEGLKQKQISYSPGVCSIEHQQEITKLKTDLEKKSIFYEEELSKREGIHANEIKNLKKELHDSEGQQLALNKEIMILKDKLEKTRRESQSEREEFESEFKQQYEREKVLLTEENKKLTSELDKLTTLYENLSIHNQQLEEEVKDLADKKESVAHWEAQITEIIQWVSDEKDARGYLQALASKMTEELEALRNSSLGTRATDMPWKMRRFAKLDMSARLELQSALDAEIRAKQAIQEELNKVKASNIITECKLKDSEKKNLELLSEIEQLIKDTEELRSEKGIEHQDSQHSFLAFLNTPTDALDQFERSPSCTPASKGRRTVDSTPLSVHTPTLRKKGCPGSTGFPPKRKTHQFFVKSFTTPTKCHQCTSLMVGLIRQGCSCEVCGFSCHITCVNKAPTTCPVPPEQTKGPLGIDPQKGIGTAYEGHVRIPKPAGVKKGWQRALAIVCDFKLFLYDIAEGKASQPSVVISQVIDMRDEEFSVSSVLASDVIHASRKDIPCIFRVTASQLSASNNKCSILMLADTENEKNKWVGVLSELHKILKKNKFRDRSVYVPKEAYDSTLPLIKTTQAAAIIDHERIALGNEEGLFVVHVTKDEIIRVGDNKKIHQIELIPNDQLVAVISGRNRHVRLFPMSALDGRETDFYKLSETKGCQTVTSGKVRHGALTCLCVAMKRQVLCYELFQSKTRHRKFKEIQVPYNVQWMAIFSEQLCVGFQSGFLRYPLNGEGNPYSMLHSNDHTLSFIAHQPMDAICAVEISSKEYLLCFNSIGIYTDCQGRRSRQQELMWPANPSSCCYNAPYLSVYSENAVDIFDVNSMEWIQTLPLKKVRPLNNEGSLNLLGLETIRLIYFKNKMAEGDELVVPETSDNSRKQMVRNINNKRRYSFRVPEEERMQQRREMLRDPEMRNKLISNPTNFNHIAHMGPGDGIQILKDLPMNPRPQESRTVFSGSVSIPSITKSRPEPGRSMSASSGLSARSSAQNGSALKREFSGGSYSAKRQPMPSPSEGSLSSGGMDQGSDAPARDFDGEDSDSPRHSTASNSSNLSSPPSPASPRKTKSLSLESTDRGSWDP
Chain of Death-associated protein kinase 3 (O43293 whole entry): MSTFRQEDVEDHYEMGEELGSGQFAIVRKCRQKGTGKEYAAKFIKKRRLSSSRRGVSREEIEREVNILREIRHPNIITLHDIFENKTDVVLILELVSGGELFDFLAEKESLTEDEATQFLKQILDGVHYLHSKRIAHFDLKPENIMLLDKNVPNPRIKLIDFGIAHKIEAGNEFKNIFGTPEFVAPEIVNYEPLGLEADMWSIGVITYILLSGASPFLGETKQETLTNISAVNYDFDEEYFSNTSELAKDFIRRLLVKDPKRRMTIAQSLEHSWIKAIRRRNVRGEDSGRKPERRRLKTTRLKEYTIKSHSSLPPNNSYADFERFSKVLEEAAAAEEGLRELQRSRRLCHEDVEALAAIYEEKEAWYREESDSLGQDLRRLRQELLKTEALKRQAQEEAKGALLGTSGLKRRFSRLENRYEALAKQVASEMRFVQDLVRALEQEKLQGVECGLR
Chain of Testis-specific serine/threonine-protein kinase 2 (Q96PF2 whole entry): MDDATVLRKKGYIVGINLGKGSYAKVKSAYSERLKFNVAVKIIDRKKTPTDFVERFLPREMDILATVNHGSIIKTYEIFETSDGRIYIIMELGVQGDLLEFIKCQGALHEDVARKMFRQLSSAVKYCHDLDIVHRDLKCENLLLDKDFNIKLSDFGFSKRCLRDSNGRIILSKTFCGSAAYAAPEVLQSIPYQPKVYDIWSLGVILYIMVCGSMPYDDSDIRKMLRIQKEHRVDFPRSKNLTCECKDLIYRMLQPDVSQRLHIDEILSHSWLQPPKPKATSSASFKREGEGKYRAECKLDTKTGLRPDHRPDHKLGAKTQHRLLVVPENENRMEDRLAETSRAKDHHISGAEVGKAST
Chain of Dual specificity protein kinase CLK4 (Q9HAZ1 whole entry, canonical isoform): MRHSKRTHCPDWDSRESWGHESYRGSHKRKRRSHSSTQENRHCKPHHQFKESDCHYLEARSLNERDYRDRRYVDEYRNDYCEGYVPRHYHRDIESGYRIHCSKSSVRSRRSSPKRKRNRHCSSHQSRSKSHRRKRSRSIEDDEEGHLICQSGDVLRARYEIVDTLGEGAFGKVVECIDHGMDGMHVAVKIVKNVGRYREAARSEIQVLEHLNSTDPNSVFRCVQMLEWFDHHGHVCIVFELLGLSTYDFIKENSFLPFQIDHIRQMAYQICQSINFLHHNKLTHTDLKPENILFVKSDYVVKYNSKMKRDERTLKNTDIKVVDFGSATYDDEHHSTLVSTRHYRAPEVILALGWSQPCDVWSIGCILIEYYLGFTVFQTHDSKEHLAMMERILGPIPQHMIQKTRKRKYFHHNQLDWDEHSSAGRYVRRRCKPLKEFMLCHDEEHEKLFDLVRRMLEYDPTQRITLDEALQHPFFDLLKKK
Chain of Cell division cycle 7-related protein kinase (O00311 whole entry): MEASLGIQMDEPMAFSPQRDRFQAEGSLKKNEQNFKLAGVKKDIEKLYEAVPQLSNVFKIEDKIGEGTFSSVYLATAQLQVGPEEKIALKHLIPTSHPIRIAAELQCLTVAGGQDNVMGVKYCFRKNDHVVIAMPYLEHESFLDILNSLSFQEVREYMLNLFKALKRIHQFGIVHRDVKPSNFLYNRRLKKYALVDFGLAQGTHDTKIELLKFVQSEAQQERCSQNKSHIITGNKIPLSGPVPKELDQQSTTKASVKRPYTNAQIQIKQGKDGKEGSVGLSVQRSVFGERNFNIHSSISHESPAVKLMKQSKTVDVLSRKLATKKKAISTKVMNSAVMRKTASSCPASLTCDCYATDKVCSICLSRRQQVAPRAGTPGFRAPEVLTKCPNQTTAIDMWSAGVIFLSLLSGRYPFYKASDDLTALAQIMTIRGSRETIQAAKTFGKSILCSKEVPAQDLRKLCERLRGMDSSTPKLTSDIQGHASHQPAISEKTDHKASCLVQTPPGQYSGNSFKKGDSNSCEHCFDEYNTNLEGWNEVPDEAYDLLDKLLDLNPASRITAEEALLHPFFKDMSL
Chain of Casein kinase I isoform alpha (P48729 whole entry, canonical isoform): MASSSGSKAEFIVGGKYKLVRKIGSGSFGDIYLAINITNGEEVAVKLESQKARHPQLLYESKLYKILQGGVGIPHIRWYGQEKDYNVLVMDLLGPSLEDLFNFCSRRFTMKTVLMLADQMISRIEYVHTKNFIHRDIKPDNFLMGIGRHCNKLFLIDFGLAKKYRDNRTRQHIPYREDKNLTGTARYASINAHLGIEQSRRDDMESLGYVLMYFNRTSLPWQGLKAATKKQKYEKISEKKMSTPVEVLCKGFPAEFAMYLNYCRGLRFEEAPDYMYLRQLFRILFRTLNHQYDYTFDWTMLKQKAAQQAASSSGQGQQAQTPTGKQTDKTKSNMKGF
Chain of Cyclin-dependent kinase 5 (Q00535 whole entry): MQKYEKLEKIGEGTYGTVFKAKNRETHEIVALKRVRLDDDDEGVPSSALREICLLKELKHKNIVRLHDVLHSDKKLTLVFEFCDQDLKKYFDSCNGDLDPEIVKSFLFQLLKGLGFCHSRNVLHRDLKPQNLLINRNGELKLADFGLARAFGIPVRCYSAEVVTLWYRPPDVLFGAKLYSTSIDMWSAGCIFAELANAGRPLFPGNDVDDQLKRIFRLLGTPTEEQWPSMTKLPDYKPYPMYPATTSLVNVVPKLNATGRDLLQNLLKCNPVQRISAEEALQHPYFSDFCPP

Cc1cccc(NC(=O)Nc2ccc3c(c2)CCc2sc4ncnc(N)c4c2-3)c1
Ki [1]: > 1.26 µM (inactive) | Ki [2]: > 3.98 µM (inactive) | Ki [3]: 0.126 µM (active) | Ki [4]: > 6.31 µM (inactive) | Ki [5]: > 1.58 µM (inactive) | Ki [6]: > 7.94 µM (inactive) | Ki [7]: > 10 µM (inactive) | Ki [8]: > 1.26 µM (inactive) | Ki [9]: > 2 µM (inactive) | Ki [10]: 0.316 µM (active) | Ki [11]: > 10 µM (inactive) | Ki [12]: 0.794 µM (active) | Ki [13]: > 6.31 µM (inactive) | Ki [14]: > 3.16 µM (inactive) | Ki [15]: > 1.58 µM (inactive) | Ki [16]: 0.158 µM (active)

Cc1ccc(-n2sc3ccccc3c2=O)cc1
IC50 [17]: 7.04 µM (active) and 4.06 µM (active)

CCC(=O)NC(c1ccc(C)cc1)c1ccc2cccnc2c1O (stereo unspecified)
IC50 [18]: > 80 µM (inactive)

N/C(=N\N=C/c1ccc(-c2ccc(O)c(C(=O)O)c2)o1)N[N+](=O)[O-]
IC50 [19]: 2.82 µM (active) | IC50 [20]: 10.2 µM (active)

CCCC(=O)NC(c1ccc(Cl)cc1)c1ccc2cccnc2c1O (stereo unspecified)
IC50 [21]: 4.13 µM (active)
